Experimental data published in US20260354378A1, “OIL-IN-WATER EMULSION FORMULATION, A PROCESS FOR ITS PREPARATION AND ITS USE AS HERBICIDE” (priority 2022, published 2026).
Counter-ions that a name gives are not always drawn.

Legend:
[1] = Solubility in the oil phase of the emulsion of US 2011/0092367 A1; format: physicochemical; details: Solvesso 200 ND, Wettol EM 1, Wettol EM 31 per Table 9
Description: (§1) As a preliminary step, solubility tests were performed to determine the ability of Aminopyralid potassium salt used as herbicide B to dissolve in the organic solvent Solvesso 200ND and the oil phase of the emulsion disclosed in US 2011/0092367 A1, page 11, paragraphs [0141] and [0142].
The organic solvent (Solvesso 200 ND), calcium dodecylbenzene sulfonate (Wettol EM 1) and castor oil ethoxylate (Wettol EM 31) were mixed in the amounts given in Table 9. After mixing, it was not soluble in said mixture. After further adding dimethenamid-P in the amount given in Table 9, solubility of the Aminopyralid potassium salt could not be increased. In summary, Aminopyralid potassium salt (herbicide B) was not soluble in the oil phase of the emulsion as disclosed in US 2011/0092367 A1 (see page 11, paragraphs [0141] and [0142]).

[2] = Solubility in the organic solvent Solvesso 200ND; format: physicochemical; details: room temperature
Description: as §1
The solubility was measured in a test tube at room temperature. 0.10 g of Aminopyralid potassium salt was placed in the test tube. First, 1 g of the organic solvent (Solvesso 200 ND) was added. The amount of the organic solvent (Solvesso 200 ND) was then increased in several steps to 10 g. […] The solubility of Aminopyralid Potassium salt in Solvesso 200ND was visually determined to be less than 1%.

SMILES: Nc1cc(Cl)nc(C(=O)O)c1Cl [Aminopyralid potassium salt, 4-amino-3,6-dichloro-2-pyridinecarboxylic acid]
- Solubility in the oil phase of the emulsion of US 2011/0092367 A1 [1]: not soluble
- Solubility in Solvesso 200 ND (visual observation) ([2]; 0.10 g in 1 g to 10 g solvent, magnetic stirrer): poor solubility
- Solubility in Solvesso 200ND ([2]; visually determined): less than 1%
